The target in one assay is T1, human H3 receptor (Homo sapiens, UniProt Q9Y5N1).
T1 construct: expressed in transfected cells
Put plainly: Human H3 radioligand binding ([3H]-N-alpha-methylhistamine, SPA). The conditions noted are these: membranes of CHO cells expressing human H3. The protocol: Cell pellets were resuspended in 5 mM Tris-HCl, pH 7.5 with 5 nM EDTA and a cocktail of protease inhibitors (Complete Protease Inhibitor Tablets, Roche Diagnostics). Cells were disrupted using a polytron cell homogenizer and the suspension was centrifuged at 1000×g for 10 minutes at 4° C. The pellet was discarded and the supernatant centrifuged at 40,000×g for 30 min at 4° C. This membrane pellet was washed in membrane buffer containing 50 mM Tris-HCl, pH 7.5 with 0.6 mM EDTA, 5 mM MgCl2 and protease inhibitors, recentrifuged as above and the final pellet resuspended in membrane buffer plus 250 mM sucrose and frozen at −80° C.
(§1) Membranes were resuspended in 50 mM Tris HCl (pH 7.4), 5 mM MgCl2, 0.1% BSA. The membrane suspensions (10 μg protein per well) were incubated in a 96 well microtiter plate with [^3H]-N-alpha-methylhistamine (approximately 1 nM final concentration), test compounds at various concentrations (0.01 nM-30 μM) and scintillation proximity beads (Perkin Elmer, FlashBlueGPCR Scintillating Beads) in a final volume of 80 μl for 4 hours at room temperature, protected from light. Non-specific binding was determined in the presence of 10 μM clobenpropit. Radioligand bound to receptor, and therefore in proximity to the scintillation beads, was measured using a MicroBeta scintillation counter.

Assay [1] concerns the target T2, rat histamine H3 receptor (Rattus norvegicus, UniProt Q9QYN8).
T2 construct: encoding the entire 445-amino-acid rat histamine H3 receptor; expressed in transfected cells
Briefly: Rat H3 radioligand binding ([3H]-N-alpha-methylhistamine, SPA). The conditions noted are these: membranes of CHO-A3 cells expressing rat H3; [3H]-N-alpha-methylhistamine; read-out: Rat H3 Ki.
Description: The rat H3 receptor cDNA was PCR amplified from reverse-transcribed RNA pooled from rat thalamus, hypothalamus, striatum and prefrontal cortex with a sequence corresponding to by #338-1672 of Genbank file #NM_053506, encoding the entire 445-amino-acid rat histamine H3 receptor. This was engineered into the pIRES-neo3 mammalian expression vector, which was stably transfected into the CHO-A3 cell line (Euroscreen, Belgium), followed by clonal selection by limiting dilution. Cells were harvested and cell pellets were frozen (−80° C.). Cell pellets were resuspended in 5 mM Tris-HCl, pH 7.5 with 5 nM EDTA and a cocktail of protease inhibitors (Complete Protease Inhibitor Tablets, Roche Diagnostics). Cells were disrupted using a polytron cell homogenizer and the suspension was centrifuged at 1000×g for 10 minutes at 4° C. The pellet was discarded and the supernatant centrifuged at 40,000×g for 30 min at 4° C. This membrane pellet was washed in membrane buffer containing 50 mM Tris-HCl, pH 7.5 with 0.6 mM EDTA, 5 mM MgCl2 and protease inhibitors, recentrifuged as above and the final pellet resuspended in membrane buffer plus 250 mM sucrose and frozen at −80° C.
as §1

Bounds are passed on as bounds.

T1 sequence (Q9Y5N1 whole entry): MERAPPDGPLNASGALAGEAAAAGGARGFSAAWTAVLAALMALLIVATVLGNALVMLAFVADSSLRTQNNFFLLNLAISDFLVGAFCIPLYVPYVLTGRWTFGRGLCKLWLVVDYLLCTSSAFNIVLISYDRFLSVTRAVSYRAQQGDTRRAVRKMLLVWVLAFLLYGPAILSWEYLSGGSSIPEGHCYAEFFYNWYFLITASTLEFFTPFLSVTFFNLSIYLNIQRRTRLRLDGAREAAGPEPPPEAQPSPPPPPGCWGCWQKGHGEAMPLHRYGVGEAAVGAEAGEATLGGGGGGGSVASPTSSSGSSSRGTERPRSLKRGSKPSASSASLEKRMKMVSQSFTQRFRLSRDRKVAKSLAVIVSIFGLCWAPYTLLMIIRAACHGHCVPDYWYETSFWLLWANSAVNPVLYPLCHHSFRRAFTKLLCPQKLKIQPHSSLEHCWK
T2 sequence (Q9QYN8 whole entry): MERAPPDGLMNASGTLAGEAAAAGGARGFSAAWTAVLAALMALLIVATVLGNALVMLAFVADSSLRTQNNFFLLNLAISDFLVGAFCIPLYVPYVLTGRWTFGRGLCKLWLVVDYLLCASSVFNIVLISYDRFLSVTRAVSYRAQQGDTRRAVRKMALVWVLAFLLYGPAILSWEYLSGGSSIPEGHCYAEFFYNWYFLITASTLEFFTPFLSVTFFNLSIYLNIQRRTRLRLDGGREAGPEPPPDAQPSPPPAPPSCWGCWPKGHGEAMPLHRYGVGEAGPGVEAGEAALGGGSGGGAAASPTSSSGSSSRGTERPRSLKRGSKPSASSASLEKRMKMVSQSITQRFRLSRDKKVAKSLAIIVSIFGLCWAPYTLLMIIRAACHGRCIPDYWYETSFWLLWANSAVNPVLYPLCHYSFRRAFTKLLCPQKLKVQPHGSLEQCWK

In the case of `O=C(CN1CCOCC1)c1ccc(OCCCN2CCCC2=O)cc1` [Example 67, 1-{3-[4-(2-Morpholin-4-yl-acetyl)-phenoxy]-propyl}-pyrrolidin-2-one], the inhibition constant Ki (on human H3 receptor; in assay [1]) was greater than 1 µM throughout.

With `C[C@@H]1CCCN1CCCOc1ccc(/C(CN2CCCCC2)=N/OC(C)(C)C)cc1` [Example 160], the Ki (at human H3 receptor; in assay [1]) was 0.0001 to 0.1 µM each time.

With `Cc1cc(C)cc(C(=O)N2CCN(CC(=O)c3ccc(OCCCN4CCC[C@H]4C)cc3)CC2)c1` [Example 140, 2-[4-(3,5-Dimethyl-benzoyl)-piperazin-1-yl]-1-{4-[3-((R)-2-methyl-pyrrolidin-1-yl)-propoxy]-phenyl}-ethanone], the Ki (on human H3 receptor; in assay [1]) was 0.0001 to 0.1 µM each time.

For `C[C@@H]1CCCN1CCCOc1ccc(C(=O)CN2CCO[C@@H](c3ccccc3)C2)cc1` [Example 39, 1-{4-[3-((R)-2-Methyl-pyrrolidin-1-yl)-propoxy]-phenyl}-2-((S)-2-phenyl-morpholin-4-yl)-ethanone], the Ki (at human H3 receptor; in assay [1]) was 0.0001 to 0.1 µM in each case.

Turning to `Cc1cc(C(=O)CN2CCN(C(=O)c3ccccc3)CC2)ccc1OCCCN1CCC[C@H]1C` [Example 107, 2-(4-Benzoyl-piperazin-1-yl)-1-{3-methyl-4-[3-((R)-2-methyl-pyrrolidin-1-yl)-propoxy]-phenyl}-ethanone], the Ki (on human H3 receptor; in assay [1]) was 0.0001 to 0.1 µM each time.

As for `C[C@@H]1CCCN1CCCOc1ccc(C(=O)CN2CCCCC2=O)cc1` [Example 22, 1-(2-{4-[3-((R)-2-Methyl-pyrrolidin-1-yl)-propoxy]-phenyl}-2-oxo-ethyl)-piperidin-2-one], the Ki (commonly a dissociation constant, usually derived from enzyme kinetics or from competition with a known ligand) was 0.0001 to 0.1 µM on human H3 receptor and 0.101 to 0.5 µM in assay [1].

In the case of `CC(C)N1CCC(Oc2ccc(C(=O)CN3CCOCC3)cc2)CC1` [Example 45, 1-[4-(1-Isopropyl-piperidin-4-yloxy)-phenyl]-2-morpholin-4-yl-ethanone], the Ki was 0.0001 to 0.1 µM at human H3 receptor and 0.101 to 0.5 µM in assay [1].

With `C[C@@H]1CCCN1CCCOc1ccc(C(=O)CN2CCN(C(=O)C(F)(F)F)CC2)cc1` [Example 64], the Ki (at human H3 receptor; in assay [1]) was 0.0001 to 0.1 µM in each case.

For the compound `C[C@@H]1CCCN1CCCOc1ccc(/C(CN2CCCCC2=O)=N/OC(C)(C)C)cc1` [Example 167], the Ki (on human H3 receptor; in assay [1]) was 0.0001 to 0.1 µM each time.

Consider `C[C@@H]1CCCN1CCCOc1ccc(C(=O)CN2CCOC(c3ccccc3)C2)cc1` (stereo partly drawn) [Example 29, 1-{4-[3-((R)-2-Methyl-pyrrolidin-1-yl)-propoxy]-phenyl}-2-(2-phenyl-morpholin-4-yl)-ethanone], for which the Ki (at human H3 receptor; in assay [1]) was 0.0001 to 0.1 µM in each case.

Turning to `C[C@@H]1CCCN1CCCOc1ccc(C(=O)CN2CCO[C@H](c3ccccc3)C2)cc1` [Example 40, 1-{4-[3-((R)-2-Methyl-pyrrolidin-1-yl)-propoxy]-phenyl}-2-((R)-2-phenyl-morpholin-4-yl)-ethanone], the Ki (on human H3 receptor; in assay [1]) was 0.0001 to 0.1 µM throughout.

Consider `C[C@@H]1CCCN1CCCOc1ccc(C(=O)CN2Cc3ccc(F)cc3C2)cc1` [Example 86, 2-(5-Fluoro-1,3-dihydro-isoindol-2-yl)-1-{4-[3-((R)-2-methyl-pyrrolidin-1-yl)-propoxy]-phenyl}-ethanone], for which the inhibitory constant (Ki) (at human H3 receptor; in assay [1]) was 0.0001 to 0.1 µM throughout.

Turning to `C[C@@H]1CCCN1CCCOc1ccc(C(=O)CN2CCCCC2)cc1` [Example 8, 1-{4-[3-((R)-2-Methyl-pyrrolidin-1-yl)-propoxy]-phenyl}-2-piperidin-1-yl-ethanone], the Ki (on human H3 receptor; in assay [1]) was 0.0001 to 0.1 µM each time.

`C[C@@H]1CCCN1CCCOc1ccc(C(=O)C(C)(C)N2CCOCC2)cc1` [Example 54]: the Ki (on human H3 receptor; in assay [1]) was 0.0001 to 0.1 µM throughout.

As for `CC1CCCN1CCCOc1ccc(C(CN2CCOCC2)=NOC(C)(C)C)cc1` (racemic) [Example 165], the Ki (at human H3 receptor; in assay [1]) was 0.0001 to 0.1 µM in each case.

The values above are taken from patent publication US20140296212A1, “SUBSTITUTED PHENOXYPROPYLCYCLOAMINE DERIVATIVES AS HISTAMINE-3 (H3) RECEPTOR LIGANDS” (CEPHALON, INC., priority 2009, published 2014).
